In patent US6518301B1, “Estrogen receptor-β ligands” (AstraZeneca AB, priority 1999, dated 2003):
Like-named read-outs stand apart in the source and are kept apart here.

Tests used:
[1] = target: T1, ER-β (Gen Bank Accession #X99101) (Homo sapiens, UniProt Q92731); experiment: Estrogen receptor binding, competition with [125I]-estradiol, ER-β
T1 construct: made in house; host or cells: in vitro transcription/translation, TNT T7 Quick-Coupled reticulocyte lysate (Promega Cat.#L1170)
Method: (§1) The ability of a compound to bind to ER was measured by its ability to compete for binding with the radio-labeled estrogen.
(§2) Receptor protein was prepared by in vitro transcription and translation of these plasmids using the TNT T7 Quick-Coupled reticulocyte lysate system (Promega Cat.#L1170). […] Programmed lysate was then aliquotted and stored frozen at −80° C.
(§3) Compounds were prepared as 1 mM stocks in DMSO, then diluted in the binding-assay buffer (in mM: 20 HEPES, 150 NaCl, 1 EDTA, 6 monothioglycerol and 10 Na2MoO4; 10% wt/vol glycerol, and pH =7.9) to a series of three-fold concentrated, 20 μL aliquots in a 96-well plate. Receptor aliquots were thawed on ice, and appropriately diluted (see below) in binding assay buffer. Diluted receptor (30 μL/each) was added to each well. […] Plates containing the final assay mixture were mixed on a shaker for 2 min and incubated overnight (˜16 h) at 4° C.
(§4) Receptor-bound and unbound radioligand was separated by filtration over sephadex columns. Columns (45 μL bed volume) were prepared by adding dry column media (Pharmacia Cat#G-25) to 96-well column templates (Millipore MultiScreen Plates Cat#MAHVN4510). Columns were then saturated with 300 μL of binding-assay buffer and stored at 4° C. Prior to use, stored columns were spun for 10 minutes at 2000 RPM, then washed twice with 200 μL of fresh binding buffer. The binding-assay mixtures (50 μL/each) were then applied to the columns, and an additional elution volume of 35 μL was immediately applied to the column. Receptor-bound radioligand was then cluted from the column by centrifugation for 10 minutes at 2000 RPM. A scintillation cocktail (145 μL) was added to the eluted radioligand/receptor complex, and radio-label was measured by liquid scintillation counting.

[2] = target: T2, ER-α (Gen Bank Accession #M12674) (Homo sapiens, UniProt P03372); experiment: Estrogen receptor binding, competition with [125I]-estradiol, ER-α
T2 construct: made in house; host or cells: in vitro transcription/translation, TNT T7 Quick-Coupled reticulocyte lysate (Promega Cat.#L1170)
T2 sequence (P03372 1-595): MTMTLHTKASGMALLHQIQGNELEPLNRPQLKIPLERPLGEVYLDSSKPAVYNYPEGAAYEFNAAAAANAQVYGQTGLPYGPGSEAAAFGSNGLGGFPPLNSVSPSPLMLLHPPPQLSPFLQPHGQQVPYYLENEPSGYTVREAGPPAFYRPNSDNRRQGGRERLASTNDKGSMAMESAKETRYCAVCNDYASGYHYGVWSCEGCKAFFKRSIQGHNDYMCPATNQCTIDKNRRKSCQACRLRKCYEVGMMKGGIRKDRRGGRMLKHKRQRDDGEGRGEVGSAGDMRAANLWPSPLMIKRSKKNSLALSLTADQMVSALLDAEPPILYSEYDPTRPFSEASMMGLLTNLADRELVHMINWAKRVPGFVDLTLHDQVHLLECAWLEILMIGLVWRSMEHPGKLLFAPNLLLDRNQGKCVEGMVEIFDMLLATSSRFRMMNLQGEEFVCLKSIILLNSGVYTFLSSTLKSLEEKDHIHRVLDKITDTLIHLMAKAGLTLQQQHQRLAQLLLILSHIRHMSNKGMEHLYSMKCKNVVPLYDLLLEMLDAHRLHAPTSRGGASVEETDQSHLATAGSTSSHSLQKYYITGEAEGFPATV
Method: as §1, §2, §3, §4

ER = experiment: Scatchard analysis of ligand binding affinity on receptor preparation; settings: Scatchard analysis at receptor dilutions giving reported Kis and signal:noise ~10; subtype not specified; read-out: KD for [125I]-estradiol
Method: The volume of receptor-programmed reticulocyte lysate to be added to the binding assay was determined independently from two measurements made on each batch of receptor prepared. First, Kis were determined for standard compounds using a series of dilutions of the receptor preparation. Scatchard analysis of ligand binding affinity was performed at the receptor dilutions that produced reported Kis for these compounds and an acceptable signal:noise ratio (˜10).

[3] = competition with 150 pM [125I]-estradiol, receptor-programmed reticulocyte lysate, overnight at 4° C., Cheng-Prushoff from IC50, read-out: ER-β Ki
[4] = competition with 150 pM [125I]-estradiol, receptor-programmed reticulocyte lysate, overnight at 4° C., Cheng-Prushoff from IC50, read-out: ER-α Ki

T1 sequence (Q92731 54-530 limits assumed): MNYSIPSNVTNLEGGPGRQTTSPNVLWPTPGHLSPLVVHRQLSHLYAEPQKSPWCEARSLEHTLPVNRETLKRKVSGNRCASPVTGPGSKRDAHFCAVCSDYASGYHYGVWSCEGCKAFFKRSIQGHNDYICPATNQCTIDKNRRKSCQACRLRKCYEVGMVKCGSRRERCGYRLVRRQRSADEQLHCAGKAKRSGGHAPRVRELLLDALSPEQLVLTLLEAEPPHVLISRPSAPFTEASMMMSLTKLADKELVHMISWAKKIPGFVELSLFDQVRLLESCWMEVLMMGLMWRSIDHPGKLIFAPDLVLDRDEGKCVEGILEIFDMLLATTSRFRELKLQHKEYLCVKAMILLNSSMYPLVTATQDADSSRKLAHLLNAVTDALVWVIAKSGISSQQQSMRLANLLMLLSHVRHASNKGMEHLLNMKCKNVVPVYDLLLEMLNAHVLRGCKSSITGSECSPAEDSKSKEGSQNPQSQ

Ki [1, 3]	Ki [2, 4]	Compound	Kd (ER)	Ki [1]	Ki [2]
3.7 nM	1000 nM	O=C1c2c(O)cc(O)cc2OCC1c1ccc(O)cc1 (stereo not drawn) [compound 26]			
5.7 nM		O=C1c2c(O)cc(O)cc2CCC1c1ccc(O)cc1 (stereo not drawn) [compound 27]			
4 nM	80 nM	CCc1c(-c2ccc(O)cc2)c(=O)oc2cc(O)ccc12 [compound 29]			
33 nM	> 3000 nM	COc1c(O)cc(O)c2c(=O)c(-c3ccc(O)cc3)coc12 [compound 32]			
50 nM	> 3000 nM	O=c1c(-c2ccccc2F)coc2cc(O)cc(O)c12 [compound 33]			
9.5 nM	95 nM	O=c1c(-c2ccccc2)c(-c2ccccc2)oc2cc(O)cc(O)c12 [compound 34]			
19 nM	50 nM	O=c1c(-c2ccccc2)c(-c2ccccc2)oc2cc(O)ccc12 [compound 35]			
0.33 nM	88 nM	O=c1cc(-c2ccc(O)cc2)oc2ccc(O)cc12 [compound 36]			
0.73 nM	75 nM	O=C1CC(c2ccc(O)cc2)Cc2ccc(O)cc21 (stereo not drawn) [compound 37]			
4.9 nM	220 nM	O=c1oc2cc(O)ccc2cc1-c1ccc(O)cc1 [compound 38]			
79 nM	> 3000 nM	O=c1oc2cc(O)cc(O)c2cc1-c1ccc(O)cc1 [compound 39]			
4.6 nM		O=c1oc2ccc(O)cc2cc1-c1ccc(O)cc1 [compound 41]			
51 nM	> 3000 nM	Cc1c(-c2ccc(Cl)cc2)c(=O)oc2cc(O)ccc12 [compound 42]			
24 nM	500 nM	Cc1c(-c2ccc(O)cc2)c(=O)oc2c(C)c(O)ccc12 [compound 43]			
2 nM	155 nM	Oc1ccc(C2COc3cc(O)ccc3C2)cc1 (stereo not drawn) [compound 46]			

Continued, molecule first:

Compound	Ki [1, 3]	Ki [2, 4]	Kd (ER)	Ki [1]	Ki [2]
O=c1c(-c2ccc(O)cc2Cl)coc2cc(O)cc(O)c12 [Compound No. 2]	0.55 nM	56 nM			
Cc1c(-c2ccc(O)cc2)c(=O)oc2cc(O)ccc12 [Compound No. 28, 3-(4-hydroxyphenyl)-7-hydroxy-4-methylcoumarin]	12 nM	322 nM			
CC12CCC3c4ccc(O)cc4CCC3C1CC([125I])C2O (stereo not drawn) [[^125I]-estradiol, [^125I]-16α-iodo-3,17β-estradiol]			0.1 to 1 nM		
O=c1c(-c2ccc(O)c(O)c2)coc2cc(O)cc(O)c12 [compound 1]	2.15 nM	605 nM			
Cc1cc(O)ccc1-c1coc2cc(O)cc(O)c2c1=O [compound 3]	1.2 nM	61 nM			
O=c1c(-c2ccc(O)c(F)c2)coc2cc(O)cc(O)c12 [compound 4]	0.5 nM	74 nM			
O=c1c(-c2ccc(O)c(Cl)c2)coc2cc(O)cc(O)c12 [compound 5]	1.2 nM	1100 nM			
O=c1c(-c2ccc(O)c(Br)c2)coc2cc(O)cc(O)c12 [compound 6, (3-Bromo-4-hydroxyphenyl)-5,7-dihydroxy-4H-1-benzopyran-4-one]	1.25 nM	439 nM			
C=CCc1cc(-c2coc3cc(O)cc(O)c3c2=O)ccc1O [compound 7]	3.2 nM	> 3000 nM			
CCCc1cc(-c2coc3cc(O)cc(O)c3c2=O)ccc1O [compound 8]	0.75 nM	> 3000 nM			
COc1cc(-c2coc3cc(O)cc(O)c3c2=O)ccc1O [compound 9]	143 nM	> 3000 nM			
Cc1cc(-c2coc3cc(O)cc(O)c3c2=O)cc(C)c1O [compound 10]	25 nM	> 3000 nM			
O=c1c(-c2ccc(F)cc2)coc2cc(O)cc(O)c12 [compound 11]	100 nM	> 3000 nM			
O=c1c(-c2ccc3c(c2)OCO3)coc2cc(O)cc(O)c12 [compound 12]	22 nM	> 3000 nM			
Nc1ccc(-c2coc3cc(O)cc(O)c3c2=O)cc1 [compound 13]	6 nM	> 3000 nM			
O=c1c(-c2ccc3ccccc3c2)coc2cc(O)cc(O)c12 [compound 14]	150 nM	> 3000 nM			
O=c1c(-c2cccc(O)c2)coc2cc(O)cc(O)c12 [compound 15]	15 nM	900 nM			
O=c1c(-c2ccccc2O)coc2cc(O)cc(O)c12 [compound 16]	110 nM	> 3000 nM			
O=c1c(-c2cccs2)coc2cc(O)cc(O)c12 [compound 17]	3.3 nM	> 3000 nM			
O=c1c(-c2ccsc2)coc2cc(O)cc(O)c12 [compound 18]	17 nM	> 3000 nM			
O=c1c(-c2ccc3ccccc3n2)coc2cc(O)cc(O)c12 [compound 19]	122 nM	> 3000 nM			
O=c1c(-c2ccc(Br)cc2)coc2cc(O)cc(O)c12 [compound 20]	25 nM	> 3000 nM			
O=c1c(-c2ccc(Cl)cc2)coc2cc(O)cc(O)c12 [compound 21]	42 nM	> 3000 nM			
COc1cc(O)c2c(=O)c(-c3ccc(O)cc3)coc2c1 [compound 22]				50 nM	> 3000 nM
Cc1cc(O)cc2occ(-c3ccc(O)cc3)c(=O)c12 [compound 23]	0.5 nM	200 nM			
O=c1c(-c2ccc(O)c(F)c2)coc2cc(O)ccc12 [compound 24]	3.3 nM	> 3000 nM			
O=c1c(-c2ccc(O)cc2)c(C(F)(F)F)oc2cc(O)ccc12 [compound 25]	10 nM	321 nM			
